# Patent US20110281747A1, “BIOMARKERS FOR PREDICTING RAPID RESPONSE TO HCV TREATMENT” (ROCHE MOLECULAR SYSTEMS, INC., priority 2009, published 2011)
# Columns and labels:
# [1] = Phase II clinical trial of RO4588161: premature withdrawal for safety reasons; format: in vivo, human
# Text: This was a phase 2A, multi-center, randomized, double-blinded (RO4588161 and ribavirin were double-blinded and Pegasys was open labeled), active-controlled, with a parallel-group study which is ongoing. A screening period (time from the first screening assessment to the first administration of test drug) of 35 days preceded the treatment portion of the trial (FIG. 1). The HCV genotype and HCV RNA titer of each patient was confirmed during the screening period and only treatment-naïve patients with HCV genotype-1 and HCV RNA titer ≧50,000 IU/mL were eligible for enrollment.
# One hundred and seven male and female patients between 18 and 66 years of age were enrolled into the study. Patients were randomized into four treatment groups: • Group A/Dual 1500 [RO4588161 1500 mg oral, twice daily+Pegasys 180 μg subcutaneous, once weekly] for 4 weeks—21 patients, • Group B/Dual 3000 [R04588161 3000 mg oral, twice daily+Pegasys 180 μg subcutaneous, once weekly] for 4 weeks—34 patients, • Group C/Triple 1500 [R04588161 1500 mg oral, twice daily+Pegasys 180 μg subcutaneous, once weekly+ribavirin 1000 mg (<75 kg) or 1200 mg (≧75 kg) oral daily] for 4 weeks—31 patients or • Group D/standard of care (SOC) [Pegasys 180 μg subcutaneous, once weekly+ribavirin 1000 mg (<75 kg) or 1200 mg (≧75 kg) oral daily] for 4 weeks—21 patients […]
# [2] = test system: HCV; conditions: monotherapy; cited from earlier work
# [3] = in vivo; cited from earlier work
SMILES,patients who prematurely withdrew for safety reasons from treatment ([1]; among the 104 evaluable patients),"patients who prematurely withdrew for safety reasons from treatment ([1]; both, human, in vivo, 4 weeks)",effect on serum levels of HCV-RNA [2],patients whose serum amino transferase levels are reduced to normal [2],patients with hemolytic anemia requiring dose reduction or discontinuation of ribavirin therapy [3]
"CC(C)C(=O)OC[C@@]1(N=[N+]=[N-])O[C@@H](n2ccc(N)nc2=O)[C@H](OC(=O)C(C)C)[C@@H]1OC(=O)C(C)C [RO4588161, Isobutyric acid (2R,3S,4R,5R)-5-(4-amino-2-oxo-2H-pyrimidin-1-yl)-2-azido-3,4-bis-isobutyryloxy-tetrahydro-furan-2-ylmethyl ester]",43 patients,,,,
"NC(=O)c1ncn([C@@H]2O[C@H](CO)[C@@H](O)[C@H]2O)n1 [ribavirin, 1-((2R,3R,4S,5R)-3,4-Dihydroxy-5-hydroxymethyl-tetrahydro-furan-2-yl)-1H-[1,2,4]triazole-3-carboxylic acid amide]",,5 patients,does not lower serum levels of HCV-RNA,40%,10 to 20%
